For 13 compounds, IC50 results are on record in patent US20240409585A1, “MACROCYCLIC IMMUNOMODULATORS” (priority 2021, published 2024).

Molecules are shown by their SMILES. Where two headings read alike, the source gives them in different places. Numbered stars: 1 amine (or outer) side, 2 acyl side, 3 side chain; on linkers, the order of the positions; unused ones are H or OH. Bridge positions count the residues as written; N and C are the ends. Square brackets hold non-standard residues; d marks the D form. Peptide text beside a SMILES is read from it. * marks the point of attachment. Bip(4'-COOH) = N[C@@H](Cc1ccc(-c2ccc(C(=O)O)cc2)cc1)C(=O)O; Bip(4'-NHAc) = CC(=O)Nc1ccc(-c2ccc(C[C@H](N)C(=O)O)cc2)cc1; X17 = Nc1ccc(-c2cccc(C[C@H](N[*:1])C(=O)[*:2])c2)cn1; Phe(3-CF3) = N[C@@H](Cc1cccc(C(F)(F)F)c1)C(=O)O; Ala(morpholin-4-yl) = N[C@@H](CN1CCOCC1)C(=O)O; Phe(4-CONH2) = NC(=O)c1ccc(C[C@H](N)C(=O)O)cc1; Phe(4-COOH) = N[C@@H](Cc1ccc(C(=O)O)cc1)C(=O)O; Phe(3,4-F2) = N[C@@H](Cc1ccc(F)c(F)c1)C(=O)O; Bip = N[C@@H](Cc1ccc(-c2ccccc2)cc1)C(=O)O; Phe(3-Me) = Cc1cccc(C[C@H](N)C(=O)O)c1; Abu(3S-NH2) = C[C@H](N)[C@H](N)C(=O)O; Val(3-OH) = CC(C)(O)[C@H](N)C(=O)O; hPhe = N[C@@H](CCc1ccccc1)C(=O)O; 2Pal = N[C@@H](Cc1ccccn1)C(=O)O; Cha = N[C@@H](CC1CCCCC1)C(=O)O; Carboxymethyl = O=C(O)C*; NMeA = CN[C@@H](C)C(=O)O; Nle = CCCC[C@H](N)C(=O)O; Orn = NCCC[C@H](N)C(=O)O; Dab = NCC[C@H](N)C(=O)O

The assay has as its target T1, Alexa fluor-647 labeled human PD-L1-Ig binding to Jurkat cell line over-expressing human PD-1 (Homo sapiens, UniProt Q15116).
T1 construct: expressed in transfected cells; host or cells: Jurkat
Put plainly: Jurkat-PD-1 Cell Binding High-Content Screening Assay (CBA): Method 3 (Alexa fluor-647 labeled PD-L1-Ig). The note with it: Jurkat-PD-1 cells, Alexa fluor-647 labeled PD-L1-Ig 177 nM. In a few lines: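 Readout by high-content imaging of PFA-fixed, Hoechst-stained cells after 1 h with 177 nM (final) Alexa fluor-647 PD-L1-Ig. Compound was added first to hPD-1 Jurkat cells in RPMI plus 10% FCS for 2 h at 37 °C.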

[1] abbreviates: head μM, read-out: CBA Method 3 μM.

T1 sequence (Q15116 25-288): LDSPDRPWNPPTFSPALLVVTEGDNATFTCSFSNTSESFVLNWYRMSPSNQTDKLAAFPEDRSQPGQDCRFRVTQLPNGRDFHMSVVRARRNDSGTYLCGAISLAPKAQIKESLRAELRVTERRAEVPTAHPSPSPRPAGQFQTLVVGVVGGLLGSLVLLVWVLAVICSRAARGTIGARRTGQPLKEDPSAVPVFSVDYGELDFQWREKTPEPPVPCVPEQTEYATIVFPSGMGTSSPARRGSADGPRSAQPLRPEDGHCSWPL

For the compound `Cc1cccc(C[C@@H]2NC(=O)[C@H](CC(=O)O)NC(=O)[C@H](Cc3ccc(OCC(=O)O)cc3)NC(=O)[C@H](CN3CCOCC3)NC(=O)CSC[C@@H](C(=O)N[C@@H](CCN)C(N)=O)NC(=O)[C@H](CCCN)NC(=O)[C@H](C(C)C)NC(=O)[C@H](CC3CCCCC3)NC(=O)[C@H](CCN)NC(=O)[C@@H](CC(C)C)NC(=O)[C@H](C)N(C)C(=O)[C@H](CCC(N)=O)NC(=O)[C@H](Cc3ccc(-c4ccccc4)cc3)NC(=O)[C@H](CCc3ccccc3)NC2=O)c1` [Example 5217] ({CH2CO}-[Ala(morpholin-4-yl)]Y(Carboxymethyl)D[Phe(3-Me)][hPhe][Bip]Q[NMeA][dL][Dab][Cha]V[Orn]C[Dab]-NH2; thioether N-14), the IC50 under setting [1] amounted to 0.26 µM. Consider `CC(=O)Nc1ccc(-c2ccc(C[C@@H]3NC(=O)[C@H](Cc4cccc(C(F)(F)F)c4)NC(=O)[C@H](CC(=O)O)NC(=O)[C@H](Cc4ccc(C(=O)O)cc4)NC(=O)[C@H]([C@H](C)N)NC(=O)CSC[C@@H](C(=O)N[C@@H](CCN)C(N)=O)NC(=O)[C@H](CC(N)=O)NC(=O)[C@H](C(C)C)NC(=O)[C@H](CC4CCCCC4)NC(=O)[C@H](CCN)NC(=O)[C@@H](CC(C)C)NC(=O)[C@H](C)N(C)C(=O)[C@H](Cc4ccc(C(N)=O)cc4)NC(=O)[C@H](Cc4ccc(-c5ccccc5)cc4)NC3=O)cc2)cc1` [Example 5109] ({CH2CO}-[Abu(3S-NH2)][Phe(4-COOH)]D[Phe(3-CF3)][Bip(4'-NHAc)][Bip][Phe(4-CONH2)][NMeA][dL][Dab][Cha]VNC[Dab]-NH2; thioether N-14), for which the IC50 (nM, read-out: CBA Method 3) came out at 0.0044 µM. As to `CC(C)C[C@H]1NC(=O)[C@H](C)N(C)C(=O)[C@H](Cc2ccc(C(=O)O)cc2)NC(=O)[C@H](Cc2ccc(-c3ccccc3)cc2)NC(=O)[C@H](CCc2ccccc2)NC(=O)[C@H](Cc2cccc(C(F)(F)F)c2)NC(=O)[C@H](CC(=O)N[C@@H](CC(=O)O)C(=O)O)NC(=O)[C@H](Cc2ccc(C(=O)O)cc2)NC(=O)[C@H](CN2CCOCC2)NC(=O)CSC[C@@H](C(=O)N[C@@H](CCN)C(N)=O)NC(=O)[C@H](CCC(N)=O)NC(=O)[C@H](C(C)C)NC(=O)[C@H](CC2CCCCC2)NC(=O)[C@H](CCN)NC1=O` [Example 5281] ({CH2CO}-[Ala(morpholin-4-yl)][Phe(4-COOH)]D(Asp)[Phe(3-CF3)][hPhe][Bip][Phe(4-COOH)][NMeA][dL][Dab][Cha]VQC[Dab]-NH2; thioether N-14), under setting [1], the IC50 came to 0.16 µM. The same measure, in the same setting: the same measure for `CC(C)C[C@H]1NC(=O)[C@H](C)N(C)C(=O)[C@H](Cc2ccc(C(N)=O)cc2)NC(=O)[C@H](Cc2ccc(-c3ccccc3)cc2)NC(=O)[C@H](Cc2ccc(OCC(=O)O)cc2)NC(=O)[C@H](Cc2cccc(C(F)(F)F)c2)NC(=O)[C@H](CC(=O)O)NC(=O)[C@H](Cc2ccc(O)cc2)NC(=O)[C@H](CN2CCOCC2)NC(=O)CSC[C@@H](C(=O)N[C@@H](CCN)C(N)=O)NC(=O)[C@H](CCCN)NC(=O)[C@H](C(C)C)NC(=O)[C@H](CC2CCCCC2)NC(=O)[C@H](CCN)NC1=O` [Example 5262] ({CH2CO}-[Ala(morpholin-4-yl)]YD[Phe(3-CF3)]Y(Carboxymethyl)[Bip][Phe(4-CONH2)][NMeA][dL][Dab][Cha]V[Orn]C[Dab]-NH2; thioether N-14): 0.11 µM. Consider `CCCC[C@@H]1NC(=O)CSC[C@@H](C(=O)N[C@@H](CCN)C(N)=O)NC(=O)[C@H](CCCN)NC(=O)[C@H](C(C)C)NC(=O)[C@H](CC2CCCCC2)NC(=O)[C@H](CCN)NC(=O)[C@@H](CC(C)C)NC(=O)[C@H](C)N(C)C(=O)[C@H](CCC(N)=O)NC(=O)[C@H](Cc2ccc(-c3ccccc3)cc2)NC(=O)[C@H](Cc2ccc(-c3ccc(C(=O)O)cc3)cc2)NC(=O)[C@H](Cc2cccc(C(F)(F)F)c2)NC(=O)[C@H](CC(=O)O)NC(=O)[C@H](Cc2ccc(C(=O)O)cc2)NC1=O` [Example 5166] ({CH2CO}-[Nle][Phe(4-COOH)]D[Phe(3-CF3)][Bip(4'-COOH)][Bip]Q[NMeA][dL][Dab][Cha]V[Orn]C[Dab]-NH2; thioether N-14), for which the IC50 (nM, read-out: CBA Method 3) is 0.001 µM.

For `CC[C@H](C)[C@@H]1NC(=O)CSC[C@@H](C(=O)N[C@@H](CCN)C(N)=O)NC(=O)[C@H](CCCN)NC(=O)[C@H](C(C)C)NC(=O)[C@H](CC2CCCCC2)NC(=O)[C@H](CCN)NC(=O)[C@@H](CC(C)C)NC(=O)[C@H](C)N(C)C(=O)[C@H](CCC(N)=O)NC(=O)[C@H](Cc2ccc(-c3ccccc3)cc2)NC(=O)[C@H](Cc2ccc(C(=O)O)cc2)NC(=O)[C@H](Cc2cccc(C)c2)NC(=O)[C@H](CC(=O)O)NC(=O)[C@H](Cc2ccc(OCC(=O)O)cc2)NC1=O` [Example 5268] ({CH2CO}-IY(Carboxymethyl)D[Phe(3-Me)][Phe(4-COOH)][Bip]Q[NMeA][dL][Dab][Cha]V[Orn]C[Dab]-NH2; thioether N-14), the IC50 (nM, read-out: CBA Method 3) came to 0.0053 µM.

Consider `Cc1cccc(C[C@@H]2NC(=O)[C@H](CC(=O)O)NC(=O)[C@H](Cc3ccc(OCC(=O)O)cc3)NC(=O)[C@H](Cc3ccccn3)NC(=O)CSC[C@@H](C(=O)N[C@@H](CCN)C(N)=O)NC(=O)[C@H](CCCN)NC(=O)[C@H](C(C)C)NC(=O)[C@H](CC3CCCCC3)NC(=O)[C@H](CCN)NC(=O)[C@@H](CC(C)C)NC(=O)[C@H](C)N(C)C(=O)[C@H](CCC(N)=O)NC(=O)[C@H](Cc3ccc(-c4ccccc4)cc3)NC(=O)[C@H](Cc3ccc(C(=O)O)cc3)NC2=O)c1` [Example 5172] ({CH2CO}-[2Pal]Y(Carboxymethyl)D[Phe(3-Me)][Phe(4-COOH)][Bip]Q[NMeA][dL][Dab][Cha]V[Orn]C[Dab]-NH2; thioether N-14), for which, under setting [1], the IC50 was determined as 0.33 µM. On the same count and under the same terms, the same measure for `Cc1cccc(C[C@@H]2NC(=O)[C@H](CC(=O)O)NC(=O)[C@H](Cc3ccc(OCC(=O)O)cc3)NC(=O)[C@H](CCc3ccccc3)NC(=O)CSC[C@@H](C(=O)N[C@@H](CCN)C(N)=O)NC(=O)[C@H](CCCN)NC(=O)[C@H](C(C)C)NC(=O)[C@H](CC3CCCCC3)NC(=O)[C@H](CCN)NC(=O)[C@@H](CC(C)C)NC(=O)[C@H](C)N(C)C(=O)[C@H](CCC(N)=O)NC(=O)[C@H](Cc3ccc(-c4ccccc4)cc3)NC(=O)[C@H](Cc3ccc(C(=O)O)cc3)NC2=O)c1` [Example 5265] ({CH2CO}-[hPhe]Y(Carboxymethyl)D[Phe(3-Me)][Phe(4-COOH)][Bip]Q[NMeA][dL][Dab][Cha]V[Orn]C[Dab]-NH2; thioether N-14): 0.03 µM.

Consider `Cc1cccc(C[C@@H]2NC(=O)[C@H](CC(=O)O)NC(=O)[C@H](Cc3ccc(OCC(=O)O)cc3)NC(=O)[C@H](CN3CCOCC3)NC(=O)CSC[C@@H](C(=O)N[C@@H](CCN)C(N)=O)NC(=O)[C@H](CCCN)NC(=O)[C@H](C(C)C)NC(=O)[C@H](CC3CCCCC3)NC(=O)[C@H](CCN)NC(=O)[C@@H](CC(C)C)NC(=O)[C@H](C)N(C)C(=O)[C@H](CCC(N)=O)NC(=O)[C@H](Cc3ccc(-c4ccccc4)cc3)NC(=O)[C@H](Cc3cccc(-c4ccc(N)nc4)c3)NC2=O)c1` [Example 5103] ({CH2CO}-[Ala(morpholin-4-yl)]Y(Carboxymethyl)D[Phe(3-Me)][X17][Bip]Q[NMeA][dL][Dab][Cha]V[Orn]C[Dab]-NH2; thioether N-14), for which the IC50 under setting [1] came to 0.38 µM. Take `Cc1cccc(C[C@@H]2NC(=O)[C@H](CC(=O)O)NC(=O)[C@H](Cc3ccc(OCC(=O)O)cc3)NC(=O)[C@H](Cc3ccc(F)c(F)c3)NC(=O)CSC[C@@H](C(=O)N[C@@H](CCN)C(N)=O)NC(=O)[C@H](CCCN)NC(=O)[C@H](C(C)C)NC(=O)[C@H](CC3CCCCC3)NC(=O)[C@H](CCN)NC(=O)[C@@H](CC(C)C)NC(=O)[C@H](C)N(C)C(=O)[C@H](CCC(N)=O)NC(=O)[C@H](Cc3ccc(-c4ccccc4)cc3)NC(=O)[C@H](Cc3ccc(C(=O)O)cc3)NC2=O)c1` [Example 5285] ({CH2CO}-[Phe(3,4-F2)]Y(Carboxymethyl)D[Phe(3-Me)][Phe(4-COOH)][Bip]Q[NMeA][dL][Dab][Cha]V[Orn]C[Dab]-NH2; thioether N-14): the IC50 under setting [1] was determined as 0.3 µM. In the case of `Cc1cccc(C[C@@H]2NC(=O)[C@H](CC(=O)O)NC(=O)[C@H](Cc3ccc(OCC(=O)O)cc3)NC(=O)[C@H](CCCCN)NC(=O)CSC[C@@H](C(=O)N[C@@H](CCN)C(N)=O)NC(=O)[C@H](CCCN)NC(=O)[C@H](C(C)C)NC(=O)[C@H](CC3CCCCC3)NC(=O)[C@H](CCN)NC(=O)[C@@H](CC(C)C)NC(=O)[C@H](C)N(C)C(=O)[C@H](CCC(N)=O)NC(=O)[C@H](Cc3ccc(-c4ccccc4)cc3)NC(=O)[C@H](Cc3ccc(C(=O)O)cc3)NC2=O)c1` [Example 5181] ({CH2CO}-KY(Carboxymethyl)D[Phe(3-Me)][Phe(4-COOH)][Bip]Q[NMeA][dL][Dab][Cha]V[Orn]C[Dab]-NH2; thioether N-14), the IC50 (nM, read-out: CBA Method 3) stood at 0.0038 µM. Take `Cc1cccc(C[C@@H]2NC(=O)[C@H](CC(=O)O)NC(=O)[C@H](Cc3ccc(-c4ccc(C(=O)O)cc4)cc3)NC(=O)[C@H](CN3CCOCC3)NC(=O)CSC[C@@H](C(=O)N[C@@H](CCN)C(N)=O)NC(=O)[C@H](CO)NC(=O)[C@H](C(C)(C)O)NC(=O)[C@H](CC3CCCCC3)NC(=O)[C@H](CC(N)=O)NC(=O)[C@@H](CC(C)C)NC(=O)[C@H](C)N(C)C(=O)[C@H](Cc3ccc(OCC(=O)O)cc3)NC(=O)[C@H](Cc3ccc(-c4ccccc4)cc3)NC(=O)[C@H](Cc3ccc(-c4ccc(C(=O)O)cc4)cc3)NC2=O)c1` [Example 5130] ({CH2CO}-[Ala(morpholin-4-yl)][Bip(4'-COOH)]D[Phe(3-Me)][Bip(4'-COOH)][Bip]Y(Carboxymethyl)[NMeA][dL]N[Cha][Val(3-OH)]SC[Dab]-NH2; thioether N-14): the IC50 under setting [1] came out at 0.06 µM. On the same count and under the same terms, next, `Cc1cccc(C[C@@H]2NC(=O)[C@H](CC(=O)O)NC(=O)[C@H](Cc3ccc(OCC(=O)O)cc3)NC(=O)[C@H](CC3CCCCC3)NC(=O)CSC[C@@H](C(=O)N[C@@H](CCN)C(N)=O)NC(=O)[C@H](CCC(=O)O)NC(=O)[C@H](C(C)C)NC(=O)[C@H](CC3CCCCC3)NC(=O)[C@H](CCN)NC(=O)[C@@H](CC(C)C)NC(=O)[C@H](C)N(C)C(=O)[C@H](CCC(N)=O)NC(=O)[C@H](Cc3ccc(-c4ccccc4)cc3)NC(=O)[C@H](CCc3ccccc3)NC2=O)c1` [Example 5214] ({CH2CO}-[Cha]Y(Carboxymethyl)D[Phe(3-Me)][hPhe][Bip]Q[NMeA][dL][Dab][Cha]VEC[Dab]-NH2; thioether N-14): 0.03 µM.
